In US20240108006A1, “PESTICIDALLY ACTIVE HETEROAROMATIC COMPOUNDS” (SYNGENTA CROP PROTECTION AG, priority 2021, published 2024):

Assays:
Type in all cases: in vivo
Chilo suppressalis = assay: Example B1: Chilo suppressalis (striped rice stemborer), artificial diet, L2 larvae; conditions: 144 h, application rate of 200 ppm, 6 days after infestation, read-out: control in at least one of the three categories (mortality, anti-feedant effect, or growth inhibition)
In short: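 Artificial diet was treated with aqueous test solutions made from 10,000 ppm DMSO stocks, dried, then infested with L2 larvae (6-8 per well). Mortality, anti-feeding effect and growth inhibition were scored against untreated samples 6 days after infestation, and control was counted when any category exceeded untreated.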

Plutella xylostella = assay: Example B8: Plutella xylostella (diamond back moth), artificial diet 24-well, eggs; conditions: 192 h, application rate of 200 ppm, 8 days after infestation, read-out: effect in at least one of the two categories (mortality or growth inhibition)
In short: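 Artificial diet in 24-well plates treated with aqueous dilutions of DMSO stock (10,000 ppm stock) and dried, then infested with Plutella eggs. Mortality and growth inhibition scored versus untreated samples 8 days after infestation.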

Spodoptera littoralis = assay: Example B9: Spodoptera littoralis (Egyptian cotton leaf worm), cotton leaf discs, L1 larvae; conditions: foliar, 72 h, application rate of 200 ppm, 3 days after infestation, read-out: control in at least one of the three categories (mortality, anti-feedant effect, or growth inhibition)
Protocol: Example B9: Spodoptera littoralis (Egyptian Cotton Leaf Worm)
Cotton leaf discs were placed onto agar in 24-well microtiter plates and sprayed with aqueous test solutions prepared from 10,000 ppm DMSO stock solutions. After drying the leaf discs were infested with five L1 larvae. The samples were assessed for mortality, anti-feeding effect, and growth inhibition in comparison to untreated samples 3 days after infestation. Control of Spodoptera littoralis by a test sample is given when at least one of the categories mortality, anti-feedant effect, and growth inhibition is higher than the untreated sample.

C[C@H](NC(=O)Nc1ccc(C(F)(F)F)cc1I)c1ncnn1-c1ccc(C#N)cn1 [Example P256, 1-[(1S)-1-[2-(5-cyano-2-pyridyl)-1,2,4-triazol-3-yl]ethyl]-3-[2-iodo-4-(trifluoromethyl)phenyl]urea]
≥ 80%: percent control (mortality, anti-feedant effect or growth inhibition) at 200 ppm (Chilo suppressalis) | percent effect (mortality or growth inhibition) at 200 ppm (Plutella xylostella) | percent control (mortality, anti-feedant effect or growth inhibition) at 200 ppm (Spodoptera littoralis)

Cc1cc(Br)c(F)cc1NC(=O)N[C@@H](C)c1ncnn1-c1ncccn1 [Example P367, 1-(4-bromo-5-fluoro-2-methyl-phenyl)-3-[(1S)-1-(2-pyrimidin-2-yl-1,2,4-triazol-3-yl)ethyl]urea]
≥ 80%: percent control (mortality, anti-feedant effect or growth inhibition) at 200 ppm (Chilo suppressalis) | percent effect (mortality or growth inhibition) at 200 ppm (Plutella xylostella) | percent control (mortality, anti-feedant effect or growth inhibition) at 200 ppm (Spodoptera littoralis)

CC(NC(=O)Nc1cc(C(F)(F)F)c(Cl)cc1Br)c1nccnc1-c1ncccn1 (stereo not drawn) [Example P240, 1-[2-bromo-4-chloro-5-(trifluoromethyl)phenyl]-3-[1-(3-pyrimidin-2-ylpyrazin-2-yl)ethyl]urea]
≥ 80%: percent control (mortality, anti-feedant effect or growth inhibition) at 200 ppm (Chilo suppressalis) | percent effect (mortality or growth inhibition) at 200 ppm (Plutella xylostella) | percent control (mortality, anti-feedant effect or growth inhibition) at 200 ppm (Spodoptera littoralis)

CNC(=O)c1cnc(-n2ncnc2[C@H](C)NC(=O)Nc2cc(C(F)(F)F)c(Cl)cc2Cl)s1 [Example P395, 2-[5-[(1S)-1-[[2,4-dichloro-5-(trifluoromethyl)phenyl]carbamoyl-amino]ethyl]-1,2,4-triazol-1-yl]-N-methyl-thiazole-5-carboxamide]
≥ 80%: percent control (mortality, anti-feedant effect or growth inhibition) at 200 ppm (Chilo suppressalis) | percent effect (mortality or growth inhibition) at 200 ppm (Plutella xylostella) | percent control (mortality, anti-feedant effect or growth inhibition) at 200 ppm (Spodoptera littoralis)

COc1cc(NC(=O)N[C@@H](C)c2ncnn2-c2ncccn2)c(Cl)cc1Cl [Example P265, 1-(2,4-dichloro-5-methoxy-phenyl)-3-[(1S)-1-(2-pyrimidin-2-yl-1,2,4-triazol-3-yl)ethyl]urea]
≥ 80%: percent control (mortality, anti-feedant effect or growth inhibition) at 200 ppm (Chilo suppressalis) | percent effect (mortality or growth inhibition) at 200 ppm (Plutella xylostella) | percent control (mortality, anti-feedant effect or growth inhibition) at 200 ppm (Spodoptera littoralis)

C[C@H](NC(=O)Nc1cc(Br)c(F)cc1Cl)c1ncnn1-c1ncccn1 [Example P388, 1-(5-bromo-2-chloro-4-fluoro-phenyl)-3-[(1S)-1-(2-pyrimidin-2-yl-1,2,4-triazol-3-yl)ethyl]urea]
≥ 80%: percent control (mortality, anti-feedant effect or growth inhibition) at 200 ppm (Chilo suppressalis) | percent effect (mortality or growth inhibition) at 200 ppm (Plutella xylostella) | percent control (mortality, anti-feedant effect or growth inhibition) at 200 ppm (Spodoptera littoralis)

C[C@H](NC(=O)Nc1cc(OC(F)(F)C(F)F)c(Cl)cc1Cl)c1ncnn1-c1ccc(C#N)cn1 [Example P251, 1-[(1S)-1-[2-(5-cyano-2-pyridyl)-1,2,4-triazol-3-yl]ethyl]-3-[2,4-dichloro-5-(1,1,2,2-tetrafluoroethoxy)phenyl]urea]
≥ 80%: percent control (mortality, anti-feedant effect or growth inhibition) at 200 ppm (Chilo suppressalis) | percent effect (mortality or growth inhibition) at 200 ppm (Plutella xylostella) | percent control (mortality, anti-feedant effect or growth inhibition) at 200 ppm (Spodoptera littoralis)

COc1cc(NC(=O)N[C@@H](C)c2ncnn2-c2ncccn2)c(Cl)cc1Br [Example P351, 1-(4-bromo-2-chloro-5-methoxy-phenyl)-3-[(1S)-1-(2-pyrimidin-2-yl-1,2,4-triazol-3-yl)ethyl]urea]
≥ 80%: percent control (mortality, anti-feedant effect or growth inhibition) at 200 ppm (Chilo suppressalis) | percent effect (mortality or growth inhibition) at 200 ppm (Plutella xylostella) | percent control (mortality, anti-feedant effect or growth inhibition) at 200 ppm (Spodoptera littoralis)

C[C@H](NC(=O)Nc1cc(F)c(Br)cc1Cl)c1ncnn1-c1ncccn1 [Example P314, 1-(4-bromo-2-chloro-5-fluoro-phenyl)-3-[(1S)-1-(2-pyrimidin-2-yl-1,2,4-triazol-3-yl)ethyl]urea]
≥ 80%: percent control (mortality, anti-feedant effect or growth inhibition) at 200 ppm (Chilo suppressalis) | percent effect (mortality or growth inhibition) at 200 ppm (Plutella xylostella) | percent control (mortality, anti-feedant effect or growth inhibition) at 200 ppm (Spodoptera littoralis)

C[C@H](NC(=O)Nc1cnc(Br)cc1Br)c1nccnc1-c1ccc(C#N)cn1 [Example P248, 1-[(1S)-1-[3-(5-cyano-2-pyridyl)pyrazin-2-yl]ethyl]-3-(4,6-dibromo-3-pyridyl)urea]
≥ 80%: percent control (mortality, anti-feedant effect or growth inhibition) at 200 ppm (Chilo suppressalis) | percent effect (mortality or growth inhibition) at 200 ppm (Plutella xylostella) | percent control (mortality, anti-feedant effect or growth inhibition) at 200 ppm (Spodoptera littoralis)

C[C@H](NC(=O)Nc1ccc(Br)cc1I)c1ncnn1-c1ncccn1 [Example P76, 1-(4-bromo-2-iodo-phenyl)-3-[(1S)-1-(2-pyrimidin-2-yl-1,2,4-triazol-3-yl)ethyl]urea]
≥ 80%: percent control (mortality, anti-feedant effect or growth inhibition) at 200 ppm (Chilo suppressalis) | percent effect (mortality or growth inhibition) at 200 ppm (Plutella xylostella) | percent control (mortality, anti-feedant effect or growth inhibition) at 200 ppm (Spodoptera littoralis)

CC(NC(=O)Nc1cnc(C(F)(F)F)cc1Cl)c1nccnc1-n1nccn1 (stereo not drawn) [Example P264, 1-[4-chloro-6-(trifluoromethyl)-3-pyridyl]-3-[1-[3-(triazol-2-yl)pyrazin-2-yl]ethyl]urea]
≥ 80%: percent control (mortality, anti-feedant effect or growth inhibition) at 200 ppm (Chilo suppressalis) | percent effect (mortality or growth inhibition) at 200 ppm (Plutella xylostella) | percent control (mortality, anti-feedant effect or growth inhibition) at 200 ppm (Spodoptera littoralis)

C[C@H](NC(=O)Nc1cc(C(F)(F)F)c(Cl)cc1Br)c1ncnn1-c1ccc(C#N)cn1 [Example P253, 1-[2-bromo-4-chloro-5-(trifluoromethyl)phenyl]-3-[(1S)-1-[2-(5-cyano-2-pyridyl)-1,2,4-triazol-3-yl]ethyl]urea]
≥ 80%: percent control (mortality, anti-feedant effect or growth inhibition) at 200 ppm (Chilo suppressalis) | percent effect (mortality or growth inhibition) at 200 ppm (Plutella xylostella) | percent control (mortality, anti-feedant effect or growth inhibition) at 200 ppm (Spodoptera littoralis)

C[C@H](NC(=O)Nc1ccc(Br)cc1OC(F)F)c1nccnc1-c1ccc(C#N)cn1 [Example P247, 1-[4-bromo-2-(difluoromethoxy)phenyl]-3-[(1S)-1-[3-(5-cyano-2-pyridyl)pyrazin-2-yl]ethyl]urea]
≥ 80%: percent control (mortality, anti-feedant effect or growth inhibition) at 200 ppm (Chilo suppressalis) | percent effect (mortality or growth inhibition) at 200 ppm (Plutella xylostella) | percent control (mortality, anti-feedant effect or growth inhibition) at 200 ppm (Spodoptera littoralis)

C[C@H](NC(=O)Nc1cc(O)c(Cl)cc1Cl)c1ncnn1-c1ncccn1 [Example P237, 1-(2,4-dichloro-5-hydroxy-phenyl)-3-[(1S)-1-(2-pyrimidin-2-yl-1,2,4-triazol-3-yl)ethyl]urea]
≥ 80%: percent control (mortality, anti-feedant effect or growth inhibition) at 200 ppm (Chilo suppressalis) | percent effect (mortality or growth inhibition) at 200 ppm (Plutella xylostella) | percent control (mortality, anti-feedant effect or growth inhibition) at 200 ppm (Spodoptera littoralis)

C[C@H](NC(=O)Nc1ccc(Cl)c(C(F)(F)F)c1)c1nccnc1-c1ccc(C#N)cn1 [Example P7, 1-[4-chloro-3-(trifluoromethyl)phenyl]-3-[(1S)-1-[3-(5-cyano-2-pyridyl)pyrazin-2-yl]ethyl]urea]
≥ 80%: percent control (mortality, anti-feedant effect or growth inhibition) at 200 ppm (Chilo suppressalis) | percent effect (mortality or growth inhibition) at 200 ppm (Plutella xylostella) | percent control (mortality, anti-feedant effect or growth inhibition) at 200 ppm (Spodoptera littoralis)

CC(NC(=O)Nc1ccc(C(F)(F)F)cc1I)c1nccnc1-c1ncccn1 (stereo not drawn) [Example P243, 1-[2-iodo-4-(trifluoromethyl)phenyl]-3-[1-(3-pyrimidin-2-ylpyrazin-2-yl)ethyl]urea]
≥ 80%: percent control (mortality, anti-feedant effect or growth inhibition) at 200 ppm (Chilo suppressalis) | percent effect (mortality or growth inhibition) at 200 ppm (Plutella xylostella) | percent control (mortality, anti-feedant effect or growth inhibition) at 200 ppm (Spodoptera littoralis)

C[C@H](NC(=O)Nc1cc(Cl)c(Cl)cc1F)c1ncnn1-c1ncccn1 [Example P118, 1-(4,5-dichloro-2-fluoro-phenyl)-3-[(1S)-1-(2-pyrimidin-2-yl-1,2,4-triazol-3-yl)ethyl]urea]
≥ 80%: percent control (mortality, anti-feedant effect or growth inhibition) at 200 ppm (Chilo suppressalis) | percent effect (mortality or growth inhibition) at 200 ppm (Plutella xylostella) | percent control (mortality, anti-feedant effect or growth inhibition) at 200 ppm (Spodoptera littoralis)

C[C@H](NC(=O)Nc1cnc(Cl)cc1I)c1ncnn1-c1ncccn1 [Example P271, 1-(6-chloro-4-iodo-3-pyridyl)-3-[(1S)-1-(2-pyrimidin-2-yl-1,2,4-triazol-3-yl)ethyl]urea]
≥ 80%: percent control (mortality, anti-feedant effect or growth inhibition) at 200 ppm (Chilo suppressalis) | percent effect (mortality or growth inhibition) at 200 ppm (Plutella xylostella) | percent control (mortality, anti-feedant effect or growth inhibition) at 200 ppm (Spodoptera littoralis)

C[C@H](NC(=O)Nc1ccc(C(F)(F)F)cc1I)c1nccnc1-c1ccc(C#N)cn1 [Example P249, 1-[(1S)-1-[3-(5-cyano-2-pyridyl)pyrazin-2-yl]ethyl]-3-[2-iodo-4-(trifluoromethyl)phenyl]urea]
≥ 80%: percent control (mortality, anti-feedant effect or growth inhibition) at 200 ppm (Chilo suppressalis) | percent effect (mortality or growth inhibition) at 200 ppm (Plutella xylostella) | percent control (mortality, anti-feedant effect or growth inhibition) at 200 ppm (Spodoptera littoralis)

C[C@H](NC(=O)Nc1cc(OC(F)(F)C(F)F)c(Cl)cc1Cl)c1ncnn1-c1ncc(C(=O)N(C)C)s1 [Example P396, 2-[5-[(1S)-1-[[2,4-dichloro-5-(1,1,2,2-tetrafluoroethoxy)phenyl]carbamoyl-amino]ethyl]-1,2,4-triazol-1-yl]-N,N-dimethyl-thiazole-5-carboxamide]
≥ 80%: percent control (mortality, anti-feedant effect or growth inhibition) at 200 ppm (Chilo suppressalis) | percent effect (mortality or growth inhibition) at 200 ppm (Plutella xylostella) | percent control (mortality, anti-feedant effect or growth inhibition) at 200 ppm (Spodoptera littoralis)

C[C@H](NC(=S)Nc1ccc(C(F)(F)F)cc1Cl)c1ncnn1-c1ncccn1 [Example P129, 1-[2-chloro-4-(trifluoromethyl)phenyl]-3-[(1S)-1-(2-pyrimidin-2-yl-1,2,4-triazol-3-yl)ethyl]thiourea]
≥ 80%: percent control (mortality, anti-feedant effect or growth inhibition) at 200 ppm (Chilo suppressalis) | percent effect (mortality or growth inhibition) at 200 ppm (Plutella xylostella) | percent control (mortality, anti-feedant effect or growth inhibition) at 200 ppm (Spodoptera littoralis)
